The source of these data is article PMC2213614 (The Journal of Cell Biology, 2008).

For the experiment, the target named is Sec3N (GST-Sec3N, N terminus of Sec3, aa 1-320) (Saccharomyces cerevisiae, UniProt P33332). The format is binding. As to conditions: 25°C.
Chain of Sec3N (GST-Sec3N, N terminus of Sec3, aa 1-320) (P33332 1-320 limits assumed): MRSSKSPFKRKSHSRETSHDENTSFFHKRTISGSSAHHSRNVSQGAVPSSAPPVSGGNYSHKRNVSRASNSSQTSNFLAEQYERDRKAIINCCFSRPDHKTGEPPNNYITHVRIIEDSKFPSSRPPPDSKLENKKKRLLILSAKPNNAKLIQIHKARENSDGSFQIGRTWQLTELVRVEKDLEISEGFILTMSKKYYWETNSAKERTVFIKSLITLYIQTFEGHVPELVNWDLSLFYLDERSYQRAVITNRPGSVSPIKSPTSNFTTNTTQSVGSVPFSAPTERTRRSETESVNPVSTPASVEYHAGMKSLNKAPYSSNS

In turn, phosphatidylinositol 4,5-bisphosphate registered a Kd of 14.4 ± 4 µM.

The term Kd denotes the equilibrium constant for the complex coming apart. The low end stands for higher affinity, the high end for lower affinity.
